What was measured:
[1] = target: Dual specificity tyrosine-phosphorylation-regulated kinase 1B (Homo sapiens) (UniProt Q9Y463); assay: Inhibition of human DYRK1B at 18.6 nM by HotSpot assay relative to control
[2] = target: T1, Tyrosine-protein kinase TXK (Homo sapiens) (UniProt P42681); assay: Inhibition of human TXK at 18.6 nM by HotSpot assay relative to control
T1 sequence (whole entry): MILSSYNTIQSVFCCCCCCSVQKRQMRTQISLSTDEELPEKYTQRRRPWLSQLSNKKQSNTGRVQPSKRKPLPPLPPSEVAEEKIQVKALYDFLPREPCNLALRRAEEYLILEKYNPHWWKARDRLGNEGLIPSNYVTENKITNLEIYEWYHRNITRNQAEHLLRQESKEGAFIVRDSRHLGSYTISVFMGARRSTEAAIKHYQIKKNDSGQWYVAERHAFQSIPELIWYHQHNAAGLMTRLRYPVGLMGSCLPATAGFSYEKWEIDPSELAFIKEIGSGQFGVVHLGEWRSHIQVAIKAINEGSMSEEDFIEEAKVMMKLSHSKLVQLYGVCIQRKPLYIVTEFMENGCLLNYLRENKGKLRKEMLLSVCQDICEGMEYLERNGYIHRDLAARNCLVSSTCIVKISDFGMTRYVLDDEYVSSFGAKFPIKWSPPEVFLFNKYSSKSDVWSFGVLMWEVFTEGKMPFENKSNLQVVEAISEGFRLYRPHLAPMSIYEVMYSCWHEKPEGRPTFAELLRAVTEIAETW

[3] = target: T2, Activin receptor type-1B (Homo sapiens) (UniProt P36896); assay: Inhibition of human ALK4 at 18.6 nM by HotSpot assay relative to control
T2 sequence (whole entry): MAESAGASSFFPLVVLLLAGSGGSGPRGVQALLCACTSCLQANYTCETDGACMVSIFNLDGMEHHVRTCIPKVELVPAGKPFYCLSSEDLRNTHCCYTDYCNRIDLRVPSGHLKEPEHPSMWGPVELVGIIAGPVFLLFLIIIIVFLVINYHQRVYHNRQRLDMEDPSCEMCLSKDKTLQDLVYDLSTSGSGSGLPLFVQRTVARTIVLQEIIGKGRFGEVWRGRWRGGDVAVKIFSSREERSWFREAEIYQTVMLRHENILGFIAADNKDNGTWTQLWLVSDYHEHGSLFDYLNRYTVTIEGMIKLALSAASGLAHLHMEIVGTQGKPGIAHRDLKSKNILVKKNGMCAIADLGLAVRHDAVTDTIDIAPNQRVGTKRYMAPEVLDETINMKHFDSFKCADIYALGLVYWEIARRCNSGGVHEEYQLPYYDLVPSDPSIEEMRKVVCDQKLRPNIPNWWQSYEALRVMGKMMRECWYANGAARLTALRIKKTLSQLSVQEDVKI

[4] = target: T3, Calcium/calmodulin-dependent protein kinase type IV (Homo sapiens) (UniProt Q16566); assay: Inhibition of human CAMK4 at 18.6 nM by HotSpot assay relative to control
T3 sequence (whole entry): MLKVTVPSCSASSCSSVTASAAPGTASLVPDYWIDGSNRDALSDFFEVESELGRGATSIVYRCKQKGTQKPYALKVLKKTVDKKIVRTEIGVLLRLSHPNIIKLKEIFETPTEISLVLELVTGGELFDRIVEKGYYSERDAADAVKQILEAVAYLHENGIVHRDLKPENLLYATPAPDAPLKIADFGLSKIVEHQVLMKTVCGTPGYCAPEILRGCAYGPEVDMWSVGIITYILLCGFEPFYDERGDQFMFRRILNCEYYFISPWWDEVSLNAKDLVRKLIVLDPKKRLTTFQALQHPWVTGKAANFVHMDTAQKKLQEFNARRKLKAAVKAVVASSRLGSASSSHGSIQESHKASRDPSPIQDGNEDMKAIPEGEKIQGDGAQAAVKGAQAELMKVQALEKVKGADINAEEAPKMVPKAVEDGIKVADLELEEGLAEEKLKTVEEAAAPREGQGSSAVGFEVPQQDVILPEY

[5] = target: Ephrin type-A receptor 2 (Homo sapiens) (UniProt P29317); assay: Inhibition of human EPHA2 at 18.6 nM by HotSpot assay relative to control
[6] = target: Ribosomal protein S6 kinase alpha-4 (Homo sapiens) (UniProt O75676); assay: Inhibition of human RPS6KA4 at 1.82 nM by HotSpot assay relative to control
[7] = target: T4, Inhibitor of nuclear factor kappa-B kinase subunit beta (Homo sapiens) (UniProt O14920); details: dose 1.82 nM
T4 sequence (whole entry): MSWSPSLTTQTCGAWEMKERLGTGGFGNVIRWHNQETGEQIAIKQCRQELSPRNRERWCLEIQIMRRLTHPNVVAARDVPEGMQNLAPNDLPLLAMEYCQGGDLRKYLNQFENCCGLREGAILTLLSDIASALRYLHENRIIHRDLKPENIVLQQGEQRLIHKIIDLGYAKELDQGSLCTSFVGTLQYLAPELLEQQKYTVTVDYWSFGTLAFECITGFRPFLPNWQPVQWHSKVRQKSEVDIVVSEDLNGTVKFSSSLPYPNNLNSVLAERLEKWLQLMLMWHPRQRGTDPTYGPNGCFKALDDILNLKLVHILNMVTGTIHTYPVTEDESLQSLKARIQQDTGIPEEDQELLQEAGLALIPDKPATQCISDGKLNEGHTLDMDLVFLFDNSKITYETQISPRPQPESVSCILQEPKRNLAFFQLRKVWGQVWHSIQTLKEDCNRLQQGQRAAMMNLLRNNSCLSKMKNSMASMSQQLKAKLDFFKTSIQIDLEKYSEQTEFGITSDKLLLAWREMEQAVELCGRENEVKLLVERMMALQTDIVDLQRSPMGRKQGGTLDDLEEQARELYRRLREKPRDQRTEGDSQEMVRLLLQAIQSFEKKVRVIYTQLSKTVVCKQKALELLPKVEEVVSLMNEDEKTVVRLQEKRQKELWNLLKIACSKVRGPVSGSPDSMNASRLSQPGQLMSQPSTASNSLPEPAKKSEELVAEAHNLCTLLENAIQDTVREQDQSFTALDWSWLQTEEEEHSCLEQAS
Description: Inhibition of human IKKb at 1.82 nM by HotSpot assay relative to control

Dual specificity tyrosine-phosphorylation-regulated kinase 1B (Homo sapiens), sequence (Q9Y463 whole entry, looked up): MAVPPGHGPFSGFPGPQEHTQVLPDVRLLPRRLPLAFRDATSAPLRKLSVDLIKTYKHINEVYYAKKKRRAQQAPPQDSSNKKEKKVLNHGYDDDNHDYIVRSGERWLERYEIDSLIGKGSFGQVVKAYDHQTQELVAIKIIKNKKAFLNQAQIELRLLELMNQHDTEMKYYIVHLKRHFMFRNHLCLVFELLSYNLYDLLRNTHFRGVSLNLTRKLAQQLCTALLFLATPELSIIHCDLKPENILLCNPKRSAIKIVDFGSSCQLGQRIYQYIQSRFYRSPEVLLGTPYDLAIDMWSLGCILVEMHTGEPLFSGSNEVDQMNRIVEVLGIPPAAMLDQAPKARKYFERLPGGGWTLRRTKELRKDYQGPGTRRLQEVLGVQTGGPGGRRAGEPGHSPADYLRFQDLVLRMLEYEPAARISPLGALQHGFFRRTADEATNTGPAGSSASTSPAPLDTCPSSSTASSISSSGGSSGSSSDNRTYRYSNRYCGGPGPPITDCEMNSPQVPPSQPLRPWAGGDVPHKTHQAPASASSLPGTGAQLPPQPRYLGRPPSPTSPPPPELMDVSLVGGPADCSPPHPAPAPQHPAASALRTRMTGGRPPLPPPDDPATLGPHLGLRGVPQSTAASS
Ephrin type-A receptor 2 (Homo sapiens), sequence (P29317 whole entry): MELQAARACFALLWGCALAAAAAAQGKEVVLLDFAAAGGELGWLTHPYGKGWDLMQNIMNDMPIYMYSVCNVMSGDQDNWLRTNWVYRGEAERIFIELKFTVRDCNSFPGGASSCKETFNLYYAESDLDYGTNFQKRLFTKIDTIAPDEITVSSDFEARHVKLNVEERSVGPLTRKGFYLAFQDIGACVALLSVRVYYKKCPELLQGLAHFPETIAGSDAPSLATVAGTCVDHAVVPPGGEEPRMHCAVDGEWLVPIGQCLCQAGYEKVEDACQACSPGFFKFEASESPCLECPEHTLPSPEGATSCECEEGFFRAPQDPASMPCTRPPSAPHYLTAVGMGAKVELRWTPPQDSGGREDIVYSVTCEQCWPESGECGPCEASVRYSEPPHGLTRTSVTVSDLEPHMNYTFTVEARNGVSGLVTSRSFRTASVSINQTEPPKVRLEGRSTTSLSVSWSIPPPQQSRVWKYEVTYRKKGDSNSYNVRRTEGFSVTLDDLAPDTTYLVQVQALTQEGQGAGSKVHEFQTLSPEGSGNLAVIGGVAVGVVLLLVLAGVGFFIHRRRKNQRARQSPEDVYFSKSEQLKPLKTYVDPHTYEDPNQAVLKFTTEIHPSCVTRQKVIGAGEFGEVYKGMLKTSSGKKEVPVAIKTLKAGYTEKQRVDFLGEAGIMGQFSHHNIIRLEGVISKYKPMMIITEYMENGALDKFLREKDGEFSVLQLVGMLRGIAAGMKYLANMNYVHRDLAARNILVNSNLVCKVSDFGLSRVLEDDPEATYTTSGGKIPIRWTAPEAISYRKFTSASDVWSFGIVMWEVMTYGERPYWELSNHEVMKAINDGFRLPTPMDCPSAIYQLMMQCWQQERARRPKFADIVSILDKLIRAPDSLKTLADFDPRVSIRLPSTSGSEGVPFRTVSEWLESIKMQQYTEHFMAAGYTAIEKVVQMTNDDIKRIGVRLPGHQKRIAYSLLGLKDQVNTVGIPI
Ribosomal protein S6 kinase alpha-4 (Homo sapiens), sequence (O75676 whole entry, looked up): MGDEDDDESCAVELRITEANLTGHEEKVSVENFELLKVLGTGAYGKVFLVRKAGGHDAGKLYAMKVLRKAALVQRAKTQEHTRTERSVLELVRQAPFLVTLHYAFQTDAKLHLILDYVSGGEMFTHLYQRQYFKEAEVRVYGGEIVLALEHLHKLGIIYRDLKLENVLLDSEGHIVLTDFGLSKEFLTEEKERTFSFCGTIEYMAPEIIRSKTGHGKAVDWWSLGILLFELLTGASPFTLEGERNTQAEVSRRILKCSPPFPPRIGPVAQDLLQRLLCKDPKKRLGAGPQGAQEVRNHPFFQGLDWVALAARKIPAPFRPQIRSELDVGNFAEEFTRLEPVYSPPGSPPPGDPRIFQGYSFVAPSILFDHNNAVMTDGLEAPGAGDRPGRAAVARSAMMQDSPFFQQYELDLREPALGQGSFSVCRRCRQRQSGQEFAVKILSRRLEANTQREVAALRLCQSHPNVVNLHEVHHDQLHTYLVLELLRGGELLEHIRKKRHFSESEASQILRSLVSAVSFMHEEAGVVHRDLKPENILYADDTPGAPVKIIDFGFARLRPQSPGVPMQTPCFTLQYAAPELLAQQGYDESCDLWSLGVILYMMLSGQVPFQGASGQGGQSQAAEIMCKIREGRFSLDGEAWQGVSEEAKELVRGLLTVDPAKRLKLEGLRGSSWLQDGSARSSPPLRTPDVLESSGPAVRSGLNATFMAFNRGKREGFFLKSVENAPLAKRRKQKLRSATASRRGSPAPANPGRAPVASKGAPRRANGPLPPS

Row | Structure (SMILES) | inhibition [1] | inhibition [2] | inhibition [3] | inhibition [4] | inhibition [5] | inhibition [6] | inhibition [7]
1 | C[C@]1(O)C[C@@H](c2nc(-c3ccc4ccc(-c5ccccc5)nc4c3)c3c(N)nccn32)C1 | 1.39% | -8.77% | -0.44% | 4.07% | 2.9% | – | –
2 | C[C@@]1(C(=O)Nc2ccc(F)nc2)CCCN1c1nc(Nc2cc(C3CC3)n[nH]2)c2cccn2n1 | – | – | – | – | – | -3.34% | -5.57%

From ChEMBL document CHEMBL5653615 (J Biol Chem, 2013)
